Experimental data as given in ChEMBL document CHEMBL5214954, “Identification of PI3K/HDAC Dual-targeted inhibitors with subtype selectivity as potential therapeutic agents against solid Tumors: Building HDAC6 potency in a Quinazolinone-based PI3Kδ-selective template” (Bioorg Med Chem, 2022).
pIC50: −log10 of the molar value.

Experiments:
KM12 = assay: Antiproliferative activity against human KM12 cells incubated for 72 hrs by CCK-8 assay; format: functional, cell-based; conditions: KM12, 72 h
HCT-116 = assay: Antiproliferative activity against human HCT-116 cells incubated for 72 hrs by CCK-8 assay; format: functional, cell-based; conditions: HCT-116, 72 h
T47D [1] = assay: Antiproliferative activity against human T47D cells incubated for 72 hrs by CCK-8 assay; format: functional, cell-based
SU-DHL-6 = assay: Antiproliferative activity against human SU-DHL-6 cells incubated for 72 hrs by CCK-8 assay; format: functional, cell-based; conditions: SU-DHL-6, 72 h
[2] = Cytotoxicity against HUVEC cells incubated for 72 hrs by CCK-8 assay; conditions: human
[3] = molecular target: Phosphatidylinositol 4,5-bisphosphate 3-kinase catalytic subunit alpha isoform (Homo sapiens, UniProt P42336); assay: Inhibition of PI3Kalpha (unknown origin) measured by ADP-Glo assay
[4] = molecular target: Phosphatidylinositol 4,5-bisphosphate 3-kinase catalytic subunit gamma isoform (Homo sapiens, UniProt P48736); assay: Inhibition of PI3Kgamma (unknown origin) measured by ADP-Glo assay
Homo sapiens [5] = organism: Homo sapiens; assay: Selectivity ratio, ratio IC50 for inhibition of PI3Kalpha (unknown origin) to IC50 for inhibition of PI3Kdelta (unknown origin)
Homo sapiens [6] = organism: Homo sapiens; assay: Selectivity ratio, ratio IC50 for inhibition of PI3Kgamma (unknown origin) to IC50 for inhibition of PI3Kdelta (unknown origin)
T47D [7] = assay: Downregulation of pSTAT3 expression in IL-6-stimulated human T47D cells at 10 to 1000 nM measured by western blot analysis; format: functional, cell-based; conditions: dose 10-1000 nM, DDE = dose-dependent effect
T47D [8] = assay: Downregulation of pAKT expression in human T47D cells at 10 to 1000 nM measured by western blot analysis; format: functional, cell-based; conditions: dose 10-1000 nM, DDE = dose-dependent effect
T47D [9] = assay: Downregulation of PD-L1 expression in human T47D cells at 10 to 1000 nM measured by western blot analysis; format: functional, cell-based; conditions: dose 10-1000 nM, DDE = dose-dependent effect
[10] = Half life in male Sprague-Dawley rat at 2 mg/kg, iv measured upto 24 hrs by LC-MS/MS analysis; format: ADME, organism-based; conditions: in vivo
[11] = Cmax in male Sprague-Dawley rat at 2 mg/kg, iv measured upto 24 hrs by LC-MS/MS analysis; format: ADME, organism-based; parameters: time < 24 hrs, dose 2 mg/kg, route iv; conditions: in vivo
[12] = AUC (0 to infinity) in male Sprague-Dawley rat at 2 mg/kg, iv measured upto 24 hrs by LC-MS/MS analysis; format: ADME, organism-based; parameters: time < 24 hrs, dose 2 mg/kg, route iv; conditions: in vivo
[13] = Clearance in male Sprague-Dawley rat at 2 mg/kg, iv measured upto 24 hrs by LC-MS/MS analysis; format: ADME, organism-based; conditions: in vivo
[14] = Apparent volume of distribution in male Sprague-Dawley rat at 2 mg/kg, iv measured upto 24 hrs by LC-MS/MS analysis; format: ADME, organism-based; conditions: in vivo, read-out: Vz
Histone deacetylase 1 = Histone deacetylase 1 (Homo sapiens, UniProt Q13547)
Description: Inhibition of HDAC1 (unknown origin) measured by fluorescence based assay

Histone deacetylase 8 = molecular target: T1, Histone deacetylase 8 (Homo sapiens, UniProt Q9BY41)
T1 sequence (Q9BY41 whole entry): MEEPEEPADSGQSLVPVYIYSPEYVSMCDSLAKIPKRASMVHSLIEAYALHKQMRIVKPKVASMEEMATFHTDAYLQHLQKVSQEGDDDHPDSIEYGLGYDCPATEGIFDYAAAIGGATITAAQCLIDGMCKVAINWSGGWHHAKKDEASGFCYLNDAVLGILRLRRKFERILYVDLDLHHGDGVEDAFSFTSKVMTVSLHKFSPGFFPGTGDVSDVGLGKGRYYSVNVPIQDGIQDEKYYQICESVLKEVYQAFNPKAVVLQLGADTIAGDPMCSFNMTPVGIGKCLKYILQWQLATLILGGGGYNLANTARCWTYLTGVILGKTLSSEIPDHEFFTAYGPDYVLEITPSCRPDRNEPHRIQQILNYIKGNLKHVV
Description: Inhibition of HDAC8 (unknown origin) measured by fluorescence based assay

Histone deacetylase 11 = molecular target: T2, Histone deacetylase 11 (Homo sapiens, UniProt Q96DB2)
T2 sequence (Q96DB2 whole entry): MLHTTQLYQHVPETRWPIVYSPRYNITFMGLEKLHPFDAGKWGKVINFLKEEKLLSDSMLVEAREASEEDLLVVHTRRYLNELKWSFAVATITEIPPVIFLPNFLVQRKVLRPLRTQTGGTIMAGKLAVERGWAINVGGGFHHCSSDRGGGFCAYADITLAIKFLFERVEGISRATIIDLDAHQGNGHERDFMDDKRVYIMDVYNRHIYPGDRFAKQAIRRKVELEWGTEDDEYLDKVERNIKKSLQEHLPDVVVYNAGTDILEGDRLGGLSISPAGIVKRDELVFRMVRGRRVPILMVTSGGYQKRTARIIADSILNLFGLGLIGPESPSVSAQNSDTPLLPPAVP
Description: Inhibition of HDAC11 (unknown origin) measured by fluorescence based assay

Phosphatidylinositol 4,5-bisphosphate 3-kinase catalytic subunit alpha isoform, sequence (P42336 whole entry, canonical isoform): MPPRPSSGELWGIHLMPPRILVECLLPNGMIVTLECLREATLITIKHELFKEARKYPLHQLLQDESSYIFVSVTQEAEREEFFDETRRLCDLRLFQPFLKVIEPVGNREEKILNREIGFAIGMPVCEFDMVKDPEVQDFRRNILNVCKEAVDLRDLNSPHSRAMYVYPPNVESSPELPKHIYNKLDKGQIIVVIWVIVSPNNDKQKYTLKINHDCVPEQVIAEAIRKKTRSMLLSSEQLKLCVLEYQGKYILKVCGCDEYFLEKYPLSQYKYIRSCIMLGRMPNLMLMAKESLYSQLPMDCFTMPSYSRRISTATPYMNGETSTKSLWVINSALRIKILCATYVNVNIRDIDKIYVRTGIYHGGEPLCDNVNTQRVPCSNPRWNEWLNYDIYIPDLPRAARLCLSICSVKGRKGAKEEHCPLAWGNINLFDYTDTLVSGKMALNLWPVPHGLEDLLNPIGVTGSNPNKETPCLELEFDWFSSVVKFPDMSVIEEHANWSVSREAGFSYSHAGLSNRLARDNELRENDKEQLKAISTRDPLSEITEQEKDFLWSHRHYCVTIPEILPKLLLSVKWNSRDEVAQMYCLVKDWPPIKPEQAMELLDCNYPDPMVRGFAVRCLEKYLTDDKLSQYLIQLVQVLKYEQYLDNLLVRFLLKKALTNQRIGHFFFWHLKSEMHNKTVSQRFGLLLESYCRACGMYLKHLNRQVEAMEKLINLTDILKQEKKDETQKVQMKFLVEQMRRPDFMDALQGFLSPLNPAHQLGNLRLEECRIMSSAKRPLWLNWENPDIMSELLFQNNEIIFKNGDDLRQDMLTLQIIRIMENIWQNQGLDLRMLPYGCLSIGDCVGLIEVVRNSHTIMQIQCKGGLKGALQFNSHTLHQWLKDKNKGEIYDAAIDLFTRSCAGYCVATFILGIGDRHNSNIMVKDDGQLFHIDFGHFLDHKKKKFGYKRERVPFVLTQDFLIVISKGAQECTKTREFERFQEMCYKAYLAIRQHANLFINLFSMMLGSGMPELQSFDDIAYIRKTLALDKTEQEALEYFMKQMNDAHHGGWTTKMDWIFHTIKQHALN
Histone deacetylase 1, sequence (Q13547 whole entry): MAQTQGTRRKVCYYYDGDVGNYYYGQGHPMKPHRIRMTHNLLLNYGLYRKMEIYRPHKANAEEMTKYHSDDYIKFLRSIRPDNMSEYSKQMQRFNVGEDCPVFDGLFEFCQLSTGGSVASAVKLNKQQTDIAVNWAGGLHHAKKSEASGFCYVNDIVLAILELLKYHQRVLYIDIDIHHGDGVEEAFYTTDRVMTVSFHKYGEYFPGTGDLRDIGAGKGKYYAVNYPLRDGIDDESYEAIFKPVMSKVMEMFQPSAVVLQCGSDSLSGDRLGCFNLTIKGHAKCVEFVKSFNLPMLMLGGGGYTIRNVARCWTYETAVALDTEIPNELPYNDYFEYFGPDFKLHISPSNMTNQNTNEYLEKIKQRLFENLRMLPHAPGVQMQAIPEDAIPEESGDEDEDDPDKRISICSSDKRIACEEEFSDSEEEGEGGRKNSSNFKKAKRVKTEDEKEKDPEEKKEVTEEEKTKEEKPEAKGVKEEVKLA
Phosphatidylinositol 4,5-bisphosphate 3-kinase catalytic subunit gamma isoform, sequence (P48736 whole entry, canonical isoform): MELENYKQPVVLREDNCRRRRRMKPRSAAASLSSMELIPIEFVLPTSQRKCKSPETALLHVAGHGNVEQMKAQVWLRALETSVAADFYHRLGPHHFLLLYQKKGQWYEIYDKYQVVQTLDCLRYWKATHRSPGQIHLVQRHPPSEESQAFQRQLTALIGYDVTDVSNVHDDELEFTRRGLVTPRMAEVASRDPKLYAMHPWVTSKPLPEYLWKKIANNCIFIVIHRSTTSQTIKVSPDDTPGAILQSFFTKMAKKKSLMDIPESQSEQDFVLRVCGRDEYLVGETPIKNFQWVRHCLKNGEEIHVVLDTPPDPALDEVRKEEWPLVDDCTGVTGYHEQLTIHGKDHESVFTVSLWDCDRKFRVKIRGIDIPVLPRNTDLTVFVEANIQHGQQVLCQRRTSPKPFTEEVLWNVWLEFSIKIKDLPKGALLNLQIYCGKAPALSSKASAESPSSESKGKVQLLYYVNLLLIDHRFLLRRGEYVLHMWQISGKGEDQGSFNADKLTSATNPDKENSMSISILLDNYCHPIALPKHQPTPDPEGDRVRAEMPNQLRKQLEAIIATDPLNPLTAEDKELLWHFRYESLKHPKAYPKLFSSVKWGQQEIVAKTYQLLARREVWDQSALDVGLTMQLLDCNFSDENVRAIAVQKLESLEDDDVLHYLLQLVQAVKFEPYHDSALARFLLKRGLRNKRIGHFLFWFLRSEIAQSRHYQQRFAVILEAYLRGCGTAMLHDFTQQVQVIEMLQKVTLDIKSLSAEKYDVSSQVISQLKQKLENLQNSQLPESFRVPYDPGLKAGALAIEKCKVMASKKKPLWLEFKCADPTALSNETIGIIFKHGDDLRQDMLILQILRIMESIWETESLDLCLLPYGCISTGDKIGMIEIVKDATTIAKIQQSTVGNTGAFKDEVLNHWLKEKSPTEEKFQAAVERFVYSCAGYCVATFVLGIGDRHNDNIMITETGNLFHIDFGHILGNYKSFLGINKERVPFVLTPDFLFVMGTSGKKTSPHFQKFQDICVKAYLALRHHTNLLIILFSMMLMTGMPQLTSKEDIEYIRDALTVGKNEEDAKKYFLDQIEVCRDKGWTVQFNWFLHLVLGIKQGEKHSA

Which results are given for `N#Cc1c(N)nc(N)nc1N1CC2(CC2)C[C@H]1c1nc2cccc(Cl)c2c(=O)n1Cc1ccc(C(=O)NO)s1`?
pIC50 (KM12): 5.92; pIC50 (HCT-116): 6.10; pIC50 (T47D [1]): 7.38; pIC50 (SU-DHL-6): 6.82; IC50 at 72 h [2]: 37000 nM; pIC50 [3]: 6.77; pIC50 [4]: 7.52; Ratio IC50 (Homo sapiens [5]): 73; Ratio IC50 (Homo sapiens [6]): 13; Activity (T47D [7]): Dde; Activity (T47D [8]): Dde; Activity (T47D [9]): Dde; half-life [10]: 27.6 min; Cmax [11]: 2120 ng/mL; AUC(0-inf) [12]: 632 ng·h/mL; clearance [13]: 53 mL/min/kg; Vd [14]: 2.09 L/kg; pIC50 (Histone deacetylase 1): 6.64; pIC50 (Histone deacetylase 8): < 5.30; pIC50 (Histone deacetylase 11): 5.81
